Biological target: T1, APX2 (recombinant His-tagged APX2) (Chlamydomonas reinhardtii, UniProt A0A2K3DPX4)
T1 construct: gene CHLRE_06g285150v5
T1 sequence (A0A2K3DPX4 97-337): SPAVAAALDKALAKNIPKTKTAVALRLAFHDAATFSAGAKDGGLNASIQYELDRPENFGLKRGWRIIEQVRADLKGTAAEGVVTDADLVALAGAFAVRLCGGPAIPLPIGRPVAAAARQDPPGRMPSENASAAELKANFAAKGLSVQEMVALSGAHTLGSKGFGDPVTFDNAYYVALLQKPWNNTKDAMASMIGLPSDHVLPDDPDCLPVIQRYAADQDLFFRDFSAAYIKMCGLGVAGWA
Assay: peroxidase assay, tetraguaiacol formation at […] nm
Format: biochemical
Conditions: electron donor, 10 mM; H2O2 varied 0-1 mM; 0.2 uM enzyme; 20 mM potassium phosphate pH 6.0

COc1ccccc1O [guaiacol]
peroxidase assay, tetraguaiacol formation at 470 nm: The enzyme demonstrated activity in the presence of guaiacol, a well-known electron donor for peroxidases

Reference: paper PMC10669542, “Ascorbate Peroxidase 2 (APX2) of Chlamydomonas Binds Copper and Modulates the Copper Insertion into Plastocyanin” (Antioxidants, 2023)
